Results published in article PMC5913971, “A Novel Piperazine-Based Drug Lead for Cryptosporidiosis from the Medicines for Malaria Venture Open-Access Malaria Box” (Antimicrobial Agents and Chemotherapy, 2018).

Tested on: C. parvum Iowa isolate
Test: Immunofluorescence assay for C. parvum growth inhibition in HCT-8 cells
Format: cell-based, Cryptosporidium parvum
Details: Cryptosporidium parvum, HCT-8, read-out: C. parvum EC50 (95% CI)
Description: Inhibition of C. parvum growth was measured as described previously ([20]). Oocysts were excysted by treatment with 10 mM hydrochloric acid (10 min at 37°C), followed by exposure to 2 mM sodium taurocholate (Sigma-Aldrich) in PBS for 10 min at 16°C. Excysted oocysts were then added to >95% confluent HCT-8 cell monolayers in 384-well plates at a concentration of 5,500 Iowa isolate oocysts per well. For C. parvum field isolates, the inoculum required to yield an infection level similar to that produced by 5,500 Iowa isolate oocysts per well was determined and was used for subsequent assays of parasite inhibition. Compounds were added just before or 3 h after infection, and assay plates were incubated for 48 h postinfection at 37°C under 5% CO2. Wells were then washed three times with PBS containing 111 mM D-galactose, fixed with 4% paraformaldehyde in PBS for 15 min at room temperature, permeabilized with 0.25% Triton X-100 for 10 min at 37°C, washed three times with PBS with 0.1% Tween 20, and blocked with 4% bovine serum albumin (BSA) in PBS for 2 h at 37°C or 4°C overnight. Parasitophorous vacuoles were stained with 1.33 μg/ml of fluorescein-labeled Vicia villosa lectin (Vector Laboratories) diluted in 1% BSA in PBS with 0.1% Tween 20 for 1 h at 37°C, followed by the addition of Hoechst 33258 (AnaSpec) at a final concentration of 0.09 mM diluted in water for another 15 min at 37°C. Wells were then washed five times with PBS containing 0.1% Tween 20. A Nikon Eclipse TE2000 epifluorescence microscope with an automated stage was programmed using NIS-Elements Advanced Research software (Nikon, USA) to focus on the center of each well and take a 3-by-3 composite image using an EXi Blue fluorescence microscopy camera (QImaging, Canada) with a 20× objective (numerical aperture, 0.45). Nucleus and parasite images were exported separately as .tif files and were analyzed using macros developed on the ImageJ platform (National Institutes of Health) ([20]). The only modification from the published macro used to count parasites was that the lower size threshold for parasites was decreased from 16.5 to 4 pixels (1 pixel = 0.65 μm). Graphs were plotted, and half-maximal effective concentration (EC50) and 90% effective concentration (EC90) values were calculated using GraphPad Prism software, version 6.01. For every C. parvum field isolate experiment, a dose-response experiment against the C. parvum Iowa isolate was performed simultaneously as a reference.

Row | Structure (SMILES) | EC50
1 | c1cc2nncn2nc1N1CCNCC1 [Compound D-53, N1CCN(CC1)c1ccc2n(n1)cnn2] | > 25 µM

Same assay, conditions: Cryptosporidium parvum, HCT-8; Table S1, confirmed screening hits; read-out: C. parvum EC50 (95% CI)

Row | EC50 | Structure (SMILES)
2 | 0.29 µM | Oc1c(CN2CCN(c3ccccc3F)CC2)cc(Br)c2cccnc12 [MMV000760, Oc1c(CN2CCN(CC2)c3ccccc3F)cc(Br)c4cccnc14]
3 | 3.5 µM | COc1cccc(Nc2nc(NCCO)c3ccccc3n2)c1 [MMV011944, n1c(NCCO)c2c(cccc2)nc1Nc3cccc(OC)c3]
4 | 2.6 µM | O=C1c2ccc3c4c(ccc(c24)C(=O)N1CCCCO)C(=O)N(CCCCO)C3=O [MMV009085, OCCCCN1C(=O)c2ccc3C(=O)N(CCCCO)C(=O)c4ccc(C1=O)c2c34]
5 | 0.21 µM | Cc1ccnc(NC(c2cccc(OCc3ccccc3)c2)c2ccc3cccnc3c2O)c1 (centres unmarked) [MMV000720, Cc1ccnc(NC(c2cccc(OCc3ccccc3)c2)c4ccc5cccnc5c4O)c1]

Row | Structure (SMILES) | EC50
6 | COc1ccc(C(=O)NC(c2ccc(Cl)cc2Cl)c2cc(Cl)c3cccnc3c2O)cc1 (centres unmarked) [MMV666054, COc1ccc(cc1)C(=O)NC(c2ccc(Cl)cc2Cl)c3cc(Cl)c4cccnc4c3O] | 0.81 µM

Same assay, conditions: Cryptosporidium parvum, HCT-8; Table S3, SAR of MMV665917; read-out: C. parvum EC50 (95% CI)

Row | Structure (SMILES) | EC50
7 | O=C(NC1CCCCC1)N1CCN(c2ccc3nncn3n2)CC1 [Compound D-20, O=C(N1CCN(CC1)c1ccc2n(n1)cnn2)NC1CCCCC1] | > 25 µM
8 | CC(Oc1ccc(Cl)cc1Cl)C(=O)N1CCN(c2ccc3nncn3n2)CC1 [Compound D-51, Clc1ccc(c(c1)Cl)OC(C(=O)N1CCN(CC1)c1ccc2n(n1)cnn2)C] | > 25 µM
9 | O=C(Nc1ccc(Cl)c(Cl)c1)N1CCN(c2ccc3nncn3n2)CC1 [Compound D-28, O=C(N1CCN(CC1)c1ccc2n(n1)cnn2)Nc1ccc(c(c1)Cl)Cl] | 0.55 µM
10 | O=C(NC1CCCCC1)N1CCN(c2ccc3nnc(C4CC4)n3n2)CC1 [Compound D-22, O=C(N1CCN(CC1)c1ccc2n(n1)c(nn2)C1CC1)NC1CCCCC1] | > 25 µM
11 | O=C(c1ccc(F)cc1)N1CCN(c2ccc3nnc(C4CC4)n3n2)CC1 [Compound D-29, Fc1ccc(cc1)C(=O)N1CCN(CC1)c1ccc2n(n1)c(nn2)C1CC1] | > 25 µM
12 | O=C(Nc1cccc(C(F)(F)F)c1)N1CCN(c2ccc3nncn3n2)CC1 [Compound D-27, O=C(N1CCN(CC1)c1ccc2n(n1)cnn2)Nc1cccc(c1)C(F)(F)F] | 17 µM
13 | O=C(Nc1ccc(F)c(Cl)c1)N1CCN(c2ccc3nnc(C4CC4)n3n2)CC1 [Compound D-43, O=C(N1CCN(CC1)c1ccc2n(n1)c(nn2)C1CC1)Nc1ccc(c(c1)Cl)F] | > 25 µM
14 | CCOC(=O)N1CCN(c2ccc3nnc(C(F)(F)F)n3n2)CC1 [Compound D-4, CCOC(=O)N1CCN(CC1)c1ccc2n(n1)c(nn2)C(F)(F)F] | > 25 µM
15 | COc1ccc(N2CCN(c3ccc4nncn4n3)CC2)cc1 [Compound D-31, COc1ccc(cc1)N1CCN(CC1)c1ccc2n(n1)cnn2] | > 25 µM
16 | CN1CCN(c2ccc3nnc(C(F)(F)F)n3n2)CC1 [Compound D-2, CN1CCN(CC1)c1ccc2n(n1)c(nn2)C(F)(F)F] | > 25 µM
17 | COc1cc(NC(=O)N2CCN(c3ccc4nncn4n3)CC2)cc(OC)c1 [Compound D-35, COc1cc(cc(c1)OC)NC(=O)N1CCN(CC1)c1ccc2n(n1)cnn2] | > 25 µM
18 | Cc1nnc2ccc(N3CCN(C(=O)OC(C)(C)C)CC3)nn12 [Compound D-60, O=C(N1CCN(CC1)c1ccc2n(n1)c(C)nn2)OC(C)(C)C] | > 25 µM
19 | COc1ccc(C)cc1NC(=O)N1CCN(c2ccc3nncn3n2)CC1 [Compound D-34, COc1ccc(cc1NC(=O)N1CCN(CC1)c1ccc2n(n1)cnn2)C] | > 25 µM
20 | O=C(Nc1ccccc1)N1CCN(c2ccc3nncn3n2)CC1 [Compound D-18, O=C(N1CCN(CC1)c1ccc2n(n1)cnn2)Nc1ccccc1] | > 25 µM
21 | COc1ccc(OC)c(NC(=O)N2CCN(c3ccc4nncn4n3)CC2)c1 [Compound D-40, COc1ccc(cc1NC(=O)N1CCN(CC1)c1ccc2n(n1)cnn2)OC] | > 25 µM
22 | CCOc1ccccc1NC(=O)N1CCN(c2ccc3nncn3n2)CC1 [Compound D-33, CCOc1ccccc1NC(=O)N1CCN(CC1)c1ccc2n(n1)cnn2] | > 25 µM
23 | O=C(Nc1ccc(C(F)(F)F)cc1)N1CCN(c2ccc3nncn3n2)CC1 [Compound D-75, FC(F)(F)c1ccc(cc1)NC(=O)N2CCN(CC2)c3ccc4nncn4n3] | 11 µM
24 | O=C(COc1cccc(Cl)c1)N1CCN(c2ccc3nncn3n2)CC1 [Compound D-41, Clc1cccc(c1)OCC(=O)N1CCN(CC1)c1ccc2n(n1)cnn2] | 18 µM
25 | O=C(Nc1ccc(OC(F)(F)F)cc1)N1CCN(c2ccc3nncn3n2)CC1 [Compound D-76, FC(F)(F)Oc1ccc(cc1)NC(=O)N2CCN(CC2)c3ccc4nncn4n3] | > 25 µM
26 | O=C(Nc1ccc2c(c1)OCO2)N1CCN(c2ccc3nncn3n2)CC1 [Compound D-19, O=C(N1CCN(CC1)c1ccc2n(n1)cnn2)Nc1ccc2c(c1)OCO2] | > 25 µM
27 | O=C(COc1ccc(F)cc1)N1CCN(c2ccc3nncn3n2)CC1 [Compound D-26, Fc1ccc(cc1)OCC(=O)N1CCN(CC1)c1ccc2n(n1)cnn2] | 20 µM
28 | O=C(Nc1cccc(Cl)c1)N1CCN(c2ccc3nncn3n2)CC1 [Compound D-77, Clc1cccc(c1)NC(=O)N2CCN(CC2)c3ccc4nncn4n3] | ~23.7 µM
29 | O=C(Nc1cc(F)ccc1F)N1CCN(c2ccc3nncn3n2)CC1 [Compound D-37, Fc1ccc(c(c1)NC(=O)N1CCN(CC1)c1ccc2n(n1)cnn2)F] | > 25 µM
30 | FC(F)(F)c1nnc2ccc(N3CCN(Cc4ccccc4)CC3)nn12 [Compound D-3, FC(c1nnc2n1nc(cc2)N1CCN(CC1)Cc1ccccc1)(F)F] | > 25 µM

Same assay, conditions: Cryptosporidium parvum; inside HCT-8 cells, 48 h incubation; Fig. 1; read-out: EC50, anti-C. parvum dose response

Row | Structure (SMILES) | EC50
31 | O=C(COc1cccc(Cl)c1)N1CCN(c2ccc3nncn3n2)CC1 [Compound D-41, Clc1cccc(c1)OCC(=O)N1CCN(CC1)c1ccc2n(n1)cnn2] | ~18 µM

Same assay, conditions: Table S1, confirmed screening hits; read-out: C. parvum EC50 (95% CI)

Row | EC50 | Structure (SMILES)
32 | 0.12 µM | Cc1cccc(-n2ncc3c(=O)[nH]c(-n4nc(C)cc4NC(=O)c4cc5ccccc5o4)nc32)c1 [MMV403679, c1(c(cnn1c2cccc(C)c2)C(=O)N3)N=C3n4nc(C)cc4NC(=O)c5cc(cccc6)c6o5]

Tested on: C. parvum Iowa isolate
Test: NOD SCID gamma (NSG) mouse model of chronic cryptosporidiosis, fecal qPCR
Format: in vivo, NOD SCID gamma mice
Details: dose 50 mg/kg, interval 12 h, duration 4 days
Description: All NOD SCID gamma mouse studies were performed in compliance with animal care guidelines and were approved by the University of Vermont Institutional Animal Care and Use Committee. NOD SCID gamma mice with normal flora (NOD.Cg-Prkdc^scid Il2rg^tm1Wjl/SzJ) ([38]) were purchased from The Jackson Laboratory (Bar Harbor, ME, USA) and were housed for at least a week for acclimatization. At the age of 4 to 5 weeks, mice were infected with 10^5 C. parvum Iowa isolate oocysts. Fecal oocyst shedding is detected 6 days after infection using a quantitative PCR (qPCR assay), so treatment was started on day 7 after infection. Mice (4 per experimental group) were treated either orally (p.o.) with MMV665917 at 30 or 60 mg/kg BID, intraperitoneally (i.p.) with MMV665917 at 60 mg/kg BID, or p.o. with 1,000 mg/kg paromomycin BID. MMV665917 was suspended in DMSO, sonicated three times, for 30 s each time, to obtain a fine suspension, aliquoted, and stored at −80°C for <10 days. On the day of treatment, aliquots of MMV665917 diluted in DMSO were thawed, mixed well using a vortexer, diluted with 1% HPMC, sonicated as before (three times for 30 s each time), mixed well, and given to mice either p.o. or by i.p. injection. A final concentration of 5% DMSO was used in 100 μl of 1% HPMC per dose. For the additional Malaria Box compounds and compound variants tested, the doses were prepared in the same way, and the specific dosages tested are given in Table S3 in the supplemental material. Mice were treated for either 4 or 7 days, allowed to recover for a week, and then sacrificed. Oocyst shedding in feces was monitored throughout by qPCR, including time points while on treatment and while monitoring for relapsed infection following completion of treatment in Fig. 2A.

Row | Structure (SMILES) | NSG efficacy
33 | c1ccc(CNc2nc(NC3CCCC3)nc3ccccc23)cc1 [MMV006169 v2, C1CCC(C1)Nc1nc(NCc2ccccc2)c2c(n1)cccc2] | No
34 | COc1ccc(Nc2nc(NCc3ccccc3Cl)c3ccccc3n2)cc1Cl [MMV006169 v3, COc1ccc(cc1Cl)Nc1nc(NCc2ccccc2Cl)c2c(n1)cccc2] | No

Same assay, conditions: dose 100 mg/kg, interval 24 h, duration 7 days

Row | Structure (SMILES) | NSG efficacy
35 | Cc1cc(NC(=O)c2cc3ccccc3o2)n(-c2nc3c(cnn3-c3ccccc3)c(=O)[nH]2)n1 [MMV403679 v4, c31c(cnn1-c2ccccc2)C(=O)NC(=N3)n4c(cc(n4)C)NC(=O)c5oc6c(c5)cccc6] | No
36 | COc1ccc(C(=O)Nc2cc(C)nn2-c2nc3c(cnn3-c3cccc(C)c3)c(=O)[nH]2)c(OC)c1 [MMV403679 v1, c31c(cnn1-c2cc(ccc2)C)C(=O)NC(=N3)n4c(cc(n4)C)NC(=O)c5c(cc(cc5)OC)OC] | No
37 | Cc1cccc(-n2ncc3c(=O)[nH]c(-n4nc(C)cc4NC(=O)C4CCCC4)nc32)c1 [MMV403679 v3, c31c(cnn1-c2cc(ccc2)C)C(=O)NC(=N3)n4c(cc(n4)C)NC(=O)C5CCCC5] | No
38 | Cc1cccc(-n2ncc3c(=O)[nH]c(-n4nc(C)cc4NC(=O)C4CC4)nc32)c1 [MMV403679 v2, c31c(cnn1-c2cc(ccc2)C)C(=O)NC(=N3)n4c(cc(n4)C)NC(=O)C5CC5] | No
